In one experiment the test system is human DSM cells. Briefly: Resting membrane potential (RMP) of DSM cells, current-clamp. In kind it is cell-based. How it is done:
(§1) Patch-clamp electrophysiological experiments: Patch-clamp experiments were performed as previously described. (Hristov K L, Chen M, Kellett W F, Rovner E S, and Petkov G V. Large-conductance voltage- and Ca2+-activated K+ channels regulate human detrusor smooth muscle function. Am J Physiol Cell Physiol 301: C903-912, 2011; Hristov K L, Parajuli S P, Soder R P, Cheng Q, Rovner E S, and Petkov G V. Suppression of human detrusor smooth muscle excitability and contractility via pharmacological activation of large conductance Ca2+-activated K+ channels. Am J Physiol Cell Physiol 302: C1632-1641, 2012; Malysz J, Rovner E S, and Petkov G V. Single-channel biophysical and pharmacological characterizations of native human large-conductance calcium-activated potassium channels in freshly isolated detrusor smooth muscle cells. Pflugers Arch 465: 965-975, 2013; Parajuli S P, Hristov K L, Cheng Q P, Malysz J, Rovner E S, and Petkov G V. Functional link between muscarinic receptors and large-conductance Ca2+-activated K+ channels in freshly isolated human detrusor smooth muscle cells. Pflugers Arch 467: 665-675, 2015.)
The current disclosure applied the amphotericin B-perforated whole cell patch-clamp technique to record transient BK currents (TBKCs), depolarization-induced steady-state whole cell BK currents, and the resting membrane potential (RMP) of human freshly-isolated DSM cells. TBKCs in DSM cells were recorded at the holding potential of −20 mV. Depolarization-induced steady-state whole cell BK currents were elicited by holding the DSM cells at −70 mV and then brief, 200 ms depolarization steps were applied from −40 mV to +80 mV in increments of 20 mV. Single BK channel activity was recorded from inside-out excised membrane patches using symmetrical K^+ (140 mM) solutions, at a holding potential of −60 mV (Vh=−60 mV). The electrochemical driving force for K^+ in these experimental conditions was +60 mV (VDV=60 mV). Paxilline (1 μM), a selective BK channel inhibitor was used to dissect their functional role in mediating 17β-estradiol induced effects on DSM function. All patch-clamp experiments were conducted at room temperature (22-23° C.).
(§2) Solutions and drugs: Ca^2+-free dissection solution contained (in mM): 80 monosodium glutamate, 55 NaCl, 6 KCl, 10 glucose, 10 HEPES,2 MgCl2, and the pH was adjusted to 7.3 with NaOH. […] Extracellular and patch-pipette solutions for single BK channel recordings contained (in mM): 140 KCl, 1.08 MgCl2, 5 EGTA, 10 HEPES, and 3.16 CaCl2, adjusted to pH 7.2 with NaOH (Ca^2+ free concentration was calculated ˜300 nM with WEBMAXC Standard, http://www.stanford.edu/˜cpatton/webmaxcS.htm, Chris Patton). […]

The subject of another experiment is rat DSM isolated strips. Conditions: 17β-estradiol 30 μM; cited from earlier work.
Experiment [1] has as its target T1, BK channels (Homo sapiens, UniProt Q12791+Q16558).
T1 construct: Human single DSM cells were enzymatically isolated as previously described; endogenous in cells; host or cells: freshly-isolated human detrusor smooth muscle (DSM) cells from open bladder surgery specimens
Briefly: Single BK channel recordings, inside-out excised membrane patches of DSM cells. Conditions: 17β-estradiol 100 nM, n=9, N=7. It counts as biochemical. How it is done: (§3) Patch-clamp electrophysiological experiments: Patch-clamp experiments were performed as previously described. […]
(§4) The current disclosure applied the amphotericin B-perforated whole cell patch-clamp technique to record transient BK currents (TBKCs), depolarization-induced steady-state whole cell BK currents, and the resting membrane potential (RMP) of human freshly-isolated DSM cells. TBKCs in DSM cells were recorded at the holding potential of −20 mV. […] Single BK channel activity was recorded from inside-out excised membrane patches using symmetrical K^+ (140 mM) solutions, at a holding potential of −60 mV (Vh=−60 mV). […]
as §2

Experiment [2] has as its target T1, BK channels. Description: Depolarization-induced steady-state whole cell outward BK currents, amphotericin B-perforated patch-clamp, freshly-isolated DSM cells. It counts as cell-based.
From the text: as §1, with “DSM single cell isolation: Human single DSM cells” for “Patch-clamp electrophysiological experiments: Patch-clamp experiments”, “enzymatically isolated” for “performed”, “2012;” for “2012; Malysz J, Rovner E S, and Petkov G V. Single-channel biophysical and pharmacological characterizations of native human large-conductance calcium-activated potassium channels in freshly isolated detrusor smooth muscle cells. Pflugers Arch 465: 965-975, 2013;”
as §3, §4

A further experiment relates to pig DSM isolated strips. Conditions: 17β-estradiol 30 μM; cited from earlier work.
The target of experiment [3] is T1, BK channels. Description: Transient BK currents (TBKCs), perforated whole cell patch-clamp, freshly-isolated DSM cells. In kind it is cell-based. Conditions: 17β-estradiol 100 nM, holding potential −20 mV.
From the text: as §1, with “DSM single cell isolation: Human single DSM cells” for “Patch-clamp electrophysiological experiments: Patch-clamp experiments”, “enzymatically isolated” for “performed”, “2012;” for “2012; Malysz J, Rovner E S, and Petkov G V. Single-channel biophysical and pharmacological characterizations of native human large-conductance calcium-activated potassium channels in freshly isolated detrusor smooth muscle cells. Pflugers Arch 465: 965-975, 2013;”, “2015.) […]” for “2015.)”
as §4

Experiment [4] relates to human DSM isolated strips. Description: Isometric tension recordings: nerve-evoked (EFS-induced) contractions of DSM isolated strips. It counts as cell-based. Conditions: 17β-estradiol 100 nM; in particular at lower stimulation frequencies (0.5-20.0 Hz); n=7, N=3; P<0.05. How it is done:
(§5) Isometric DSM tension recordings: Isometric DSM tension recordings of human DSM isolated strips (˜7-8 mm long and ˜4-5 mm wide) were conducted as previously described (Hristov K L, Chen M, Kellett W F, Rovner E S, and Petkov G V. Large-conductance voltage- and Ca2+-activated K+ channels regulate human detrusor smooth muscle function. Am J Physiol Cell Physiol 301: C903-912, 2011; Hristov K L, Parajuli S P, Soder R P, Cheng Q, Rovner E S, and Petkov G V. Suppression of human detrusor smooth muscle excitability and contractility via pharmacological activation of large conductance Ca2+-activated K+ channels. Am J Physiol Cell Physiol 302: C1632-1641, 2012).
as §2

For experiment [5], the system named is human DSM isolated strips. Briefly: Isometric tension recordings: spontaneous phasic contractions of DSM isolated strips. In kind it is cell-based. Here is the method:
Human DSM specimen collection: The study forming the basis for the current disclosure was conducted according to protocol Pro00045232, reviewed and approved by the Medical University of South Carolina Institutional Review Board. […] The DSM tissue samples were obtained during open bladder surgeries performed for a variety of indications such as bladder cancer, including radical cystectomy for urothelial carcinoma, and adenocarcinoma. In such cases, the collected DSM tissue was remote from the site of tumor. DSM strips were dissected from the bladder specimens, and after removing the urothelial and lamina propria layers, the strips were used for single DSM cell isolation and isometric DSM tension recordings.
as §5
Solutions and drugs: Ca^2+-free dissection solution contained (in mM): 80 monosodium glutamate, 55 NaCl, 6 KCl, 10 glucose, 10 HEPES,2 MgCl2, and the pH was adjusted to 7.3 with NaOH. For the functional studies on human DSM contractility, the physiological saline solution had the following composition (in mM): 119 NaCl, 4.7 KCl, 24 NaHCO3, 1.2 KH2PO4, 2.5 CaCl2, 1.2 MgSO4, and 11 D-glucose, aerated with 95% O2-5% CO2 (pH 7.4). Extracellular (bath) solution used for the perforated whole cell patch-clamp experiments contained (in mM): 134 NaCl, 6 KCl, 1 MgCl2, 2 CaCl2, 10 glucose, 10 HEPES, and pH was adjusted to 7.4 with NaOH. The patch-pipette solution for the perforated patch-clamp experiments contained (in mM): 110 potassium aspartate, 30 KCl, 10 NaCl, 1 MgCl2, 10 HEPES, 0.05 EGTA, and pH was adjusted to 7.2 with NaOH. Amphotericin-B stock solution was prepared daily in dimethyl sulfoxide (DMSO) and was added to the pipette solution (200 μg/ml) before the experiment and was replaced every 1-2 h. Extracellular and patch-pipette solutions for single BK channel recordings contained (in mM): 140 KCl, 1.08 MgCl2, 5 EGTA, 10 HEPES, and 3.16 CaCl2, adjusted to pH 7.2 with NaOH (Ca^2+ free concentration was calculated ˜300 nM with WEBMAXC Standard, http://www.stanford.edu/˜cpatton/webmaxcS.htm, Chris Patton). […]
Data analysis and statistics: Clampfit 10.3 (Molecular Device, Union City, Calif.) and Minianalysis software (Synaptosoft, Inc., NJ) were used to analyze the data. Mean values of the last 50 ms pulse of 200 ms depolarization step of at least 5 average files in the absence (control) and in the presence of 17β-estradiol were analyzed to evaluate the effects of 17β-estradiol on steady-state whole cell BK currents. […] Five minutes of at least an 8-10 min stable patch-clamp recording prior to application of 17β-estradiol were analyzed for control data, and the last 5 min of continuous recordings of 10-15 min after application of 17β-estradiol were analyzed to evaluate the effects of 17β-estradiol on RMP or TBKCs. […]

Where [6] appears, read: 17β-estradiol 100 nM-1 μM, strips pre-incubated with paxilline (1 μM), n=5, N=5, P>0.05.
Setting [7] is: 17β-estradiol 1 μM, n=8, N=5, P<0.05.

Molecules are shown by their SMILES.

T1 sequence (Q12791 whole entry): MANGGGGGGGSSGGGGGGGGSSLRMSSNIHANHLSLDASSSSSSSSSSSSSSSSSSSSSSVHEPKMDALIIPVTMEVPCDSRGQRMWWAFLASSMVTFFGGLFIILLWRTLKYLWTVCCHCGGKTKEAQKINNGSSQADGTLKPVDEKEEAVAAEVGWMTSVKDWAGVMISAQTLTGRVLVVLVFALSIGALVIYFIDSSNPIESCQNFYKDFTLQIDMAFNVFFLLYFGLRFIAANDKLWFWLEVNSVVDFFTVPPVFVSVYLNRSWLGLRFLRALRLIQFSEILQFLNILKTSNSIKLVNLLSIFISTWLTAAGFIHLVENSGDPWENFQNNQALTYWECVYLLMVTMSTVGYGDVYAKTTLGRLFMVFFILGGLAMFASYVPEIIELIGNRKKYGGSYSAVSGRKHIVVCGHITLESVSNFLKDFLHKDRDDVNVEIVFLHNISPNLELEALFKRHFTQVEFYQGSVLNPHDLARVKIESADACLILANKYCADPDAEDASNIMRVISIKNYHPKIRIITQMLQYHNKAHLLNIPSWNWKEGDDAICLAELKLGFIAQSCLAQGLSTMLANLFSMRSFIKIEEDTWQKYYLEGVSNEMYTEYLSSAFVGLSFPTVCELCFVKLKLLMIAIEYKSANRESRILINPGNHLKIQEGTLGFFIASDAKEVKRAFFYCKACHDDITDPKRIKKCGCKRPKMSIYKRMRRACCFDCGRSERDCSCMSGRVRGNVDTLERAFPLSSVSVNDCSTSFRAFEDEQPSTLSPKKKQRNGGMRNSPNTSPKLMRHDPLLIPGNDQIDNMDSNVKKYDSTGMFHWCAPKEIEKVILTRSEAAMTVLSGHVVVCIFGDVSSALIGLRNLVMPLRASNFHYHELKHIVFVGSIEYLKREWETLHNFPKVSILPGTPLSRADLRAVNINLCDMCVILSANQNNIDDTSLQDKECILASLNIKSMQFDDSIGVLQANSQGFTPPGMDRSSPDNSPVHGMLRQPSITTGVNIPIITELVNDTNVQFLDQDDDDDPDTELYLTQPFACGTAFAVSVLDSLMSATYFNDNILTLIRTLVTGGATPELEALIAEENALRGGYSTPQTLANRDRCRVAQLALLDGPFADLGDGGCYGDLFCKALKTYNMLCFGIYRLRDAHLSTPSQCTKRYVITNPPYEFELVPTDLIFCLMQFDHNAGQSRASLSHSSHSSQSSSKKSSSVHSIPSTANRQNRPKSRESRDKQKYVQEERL
T1 sequence (Q16558 whole entry): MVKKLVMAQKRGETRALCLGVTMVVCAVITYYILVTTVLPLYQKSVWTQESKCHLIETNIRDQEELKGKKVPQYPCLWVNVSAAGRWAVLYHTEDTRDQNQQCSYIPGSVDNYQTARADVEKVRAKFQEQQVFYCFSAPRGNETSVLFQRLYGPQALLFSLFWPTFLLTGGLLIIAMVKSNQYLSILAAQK

Consider `C[C@]12CC[C@@H]3c4ccc(O)cc4CC[C@H]3[C@@H]1CC[C@@H]2O` [17β-estradiol], for which the “DSM cell RMP” value in the experiment with human DSM cells (17β-estradiol 100 nM, control −25.7±3.2 mV, n=11, N=9, P<0.05) is given as −28.9±3.3 mV. Besides, the “hyperpolarization of the DSM cell RMP” value in the experiment with human DSM cells (17β-estradiol 100 nM, n=11, N=9, P<0.05) is given as approximately 3 mV. The “DSM cell RMP” value with human DSM cells (17β-estradiol in the presence of paxilline (1 μM), n=8, N=5, P>0.05) was −21.9±4.4 mV. In addition, the “effect on pharmacologically-induced and nerve-evoked contractions” value in the experiment on rat DSM isolated strips is recorded as “decrease”. Moreover, on BK channels [1] (Vh=−60 mV, control 0.086±0.030, P<0.05), the “single BK channel open probability (NPo)” value was 0.137±0.030. Further, on BK channels [1] (control 11.7±0.7 pA, P>0.05), the “single BK channel current amplitude” value was found to be 11.9±0.5 pA. Moreover, on BK channels [2] (17β-estradiol 100 nM, n=12, N=8, P<0.05), the “effect on whole cell K+ current density” value was “significantly increased”. The “whole cell outward K+ currents” value on BK channels [2] (at +80 mV, 17β-estradiol 100 nM, control 33.9±6.5 pA/pF, n=12, N=8, P<0.05) came to 44.5±7.8 pA/pF. On BK channels [2] (at +80 mV, both paxilline (1 μM) and 17β-estradiol (100 nM), vs 6.1±1.7 paxilline alone, P>0.05), this compound had a BK current amplitude of 6.8±1.8 pA/pF. The “effect on KCl- and muscarinic receptor-induced contractions” value in the experiment on pig DSM isolated strips is reported as “inhibitory effects”. Moreover, on BK channels [3], the “effect on average TBKC amplitude” value is listed as “without significantly altering”. Besides, on BK channels [3] (control taken as 100%, n=8, N=5, P<0.05), the “increase of the frequency of TBKCs” value is on record as 74.6±37.8%. For the same compound, the “effect on EFS-induced contractions” value in experiment [4] is given as “significantly inhibited”. Further, in experiment [5] (setting [6]), the “effect on muscle force integral” value is reported as “did not affect” and the “effect on spontaneous phasic contraction amplitude” value was “did not affect”. Moreover, in experiment [5] (setting [7]), the “decrease of muscle force integral” value was 44.4±13.2% and the “decrease of spontaneous phasic contraction amplitude” value is reported as 53.3±8.9%. In addition, the “effect on phasic contraction frequency” value in experiment [5] (17β-estradiol 1 μM, n=8, N=5, P>0.05) is recorded as “without significantly changing”.

Turning to `CC(C)(O)[C@H]1O[C@H]2CC[C@@]3(C)[C@@](O)(CC[C@H]4Cc5c([nH]c6ccccc56)[C@@]43C)C2=CC1=O` [paxilline], in the experiment with human DSM cells (paxilline only (1 μM), n=8, N=5), the “DSM cell RMP” value was −22.1±4.7 mV.
